Measurements from ChEMBL document CHEMBL1201862, “PubChem BioAssay data set” (2004).
Calls of active or inactive are those of the source.

What was measured:
[1] = HEK293T cytotoxicity, dose response, cytotoxicity control for miR-122 modulator project, cell-based, inhibitor set, cherry-pick, set 2 (AID 720697); format: functional
[2] = HEK293T cytotoxicity, dose response, cytotoxicity control for miR-122 modulator project, cell-based, activator set, cherry-pick (AID 720690); format: functional;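 further: HEK293T human cells scored for general mammalian cytotoxicity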
[3] = miR-122 activators in hepatoma reporter cells, dose response, cell-based, Huh7 psiCHECK-miR122, Renilla luciferase, cherry-picked (AID 651956); format: functional;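 further: huh7 hepatoma cells stably carrying a psiCHECK-2 miR-122 sensor plasmid; renilla luciferase signal reporting endogenous miR-122 activity after 48 h compound exposure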
[4] = ARNT/TACC3 interaction disruptors, potency, confirmation, biochemical, AlphaScreen, cherry-picked samples (AID 651703); format: functional, Homo sapiens;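 further: His-tagged ARNT PAS-B domain paired with GST-TACC3 E629A dimer coactivator fragment; potency of inhibitors that break up the complex and lower AlphaScreen signal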
[5] = target: T1, Caspase-6 (Homo sapiens, UniProt P55212); assay: human caspase-6 inhibitors, dose response, biochemical, VEID-R110 fluorescence, cherry-pick (AID 720632)
T1 sequence (P55212 whole entry): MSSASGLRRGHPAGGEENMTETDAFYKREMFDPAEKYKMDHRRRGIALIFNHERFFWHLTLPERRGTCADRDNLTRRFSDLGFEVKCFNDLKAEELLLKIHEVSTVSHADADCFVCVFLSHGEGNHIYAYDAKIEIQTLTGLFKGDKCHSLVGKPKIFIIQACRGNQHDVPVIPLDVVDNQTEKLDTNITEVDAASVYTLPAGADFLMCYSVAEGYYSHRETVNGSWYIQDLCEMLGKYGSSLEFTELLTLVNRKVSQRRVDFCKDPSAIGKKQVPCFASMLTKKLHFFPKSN

[6] = target: T2, Interleukin-8 (Homo sapiens, UniProt P10145); assay: Dose Response confirmation of uHTS small molecule hits for cystic fibrosis induced NFkb Inhibitors in a PAF-induced IL8 counterscreen.; format: functional; conditions: read-out: IC50_Mean
T2 sequence (P10145 whole entry): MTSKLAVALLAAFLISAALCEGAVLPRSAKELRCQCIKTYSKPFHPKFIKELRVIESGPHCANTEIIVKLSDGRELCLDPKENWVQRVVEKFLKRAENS

[7] = target: T3, Small ubiquitin-related modifier 1 (Homo sapiens, UniProt P63165); assay: inhibitors of SUMO1 partner interactions, dose response, biochemical, FRET (AID 624383); format: functional; conditions: read-out: IC50_Mean
T3 sequence (P63165 whole entry): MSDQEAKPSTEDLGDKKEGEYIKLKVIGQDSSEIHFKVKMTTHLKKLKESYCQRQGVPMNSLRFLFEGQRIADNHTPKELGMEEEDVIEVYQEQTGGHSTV

[8] = target: 26S proteasome non-ATPase regulatory subunit 14 (Homo sapiens, UniProt O00487); assay: inhibition of proteasome subunit RPN11 – biochemical, fluorescence polarization, uHTS hits, confirmation (AID 602368); format: functional
26S proteasome non-ATPase regulatory subunit 14, sequence (O00487 whole entry): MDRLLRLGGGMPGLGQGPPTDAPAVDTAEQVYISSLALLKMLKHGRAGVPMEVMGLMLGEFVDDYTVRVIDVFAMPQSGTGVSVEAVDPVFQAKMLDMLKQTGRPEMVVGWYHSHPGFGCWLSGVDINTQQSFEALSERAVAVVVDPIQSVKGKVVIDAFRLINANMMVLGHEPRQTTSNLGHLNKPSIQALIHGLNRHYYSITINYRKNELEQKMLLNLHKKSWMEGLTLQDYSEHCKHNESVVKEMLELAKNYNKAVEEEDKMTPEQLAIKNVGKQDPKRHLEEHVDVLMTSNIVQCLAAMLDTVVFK

[9] = target: T3, Small ubiquitin-related modifier 1; assay: inhibitors of SUMO1 peptide binding, dose response, biochemical, fluorescence polarization, uHTS hits (AID 624382); format: functional; conditions: read-out: IC50_Mean
[10] = target: T4, Low molecular weight phosphotyrosine protein phosphatase (Homo sapiens, UniProt P24666); format: functional; conditions: read-out: IC50_Mean
T4 sequence (P24666 whole entry): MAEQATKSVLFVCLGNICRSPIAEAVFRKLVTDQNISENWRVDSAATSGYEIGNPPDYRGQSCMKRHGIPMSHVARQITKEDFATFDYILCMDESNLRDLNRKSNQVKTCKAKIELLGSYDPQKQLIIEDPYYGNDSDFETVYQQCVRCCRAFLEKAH

[11] = target: Prothrombin (Bos taurus, UniProt P00735); assay: thrombin inhibition, dose response, biochemical, fluorescence polarization, uHTS hits (AID 602369); format: functional
[12] = target: T5, Tyrosine-protein phosphatase non-receptor type 22 (Homo sapiens, UniProt Q9Y2R2); assay: LYP phosphatase inhibition for selectivity, dose response, selectivity assay for LMPTP inhibitor project, biochemical, fluorescence, LYP catalytic domain (AID 652006); format: functional; conditions: read-out: IC50_Mean
T5 sequence (Q9Y2R2 whole entry): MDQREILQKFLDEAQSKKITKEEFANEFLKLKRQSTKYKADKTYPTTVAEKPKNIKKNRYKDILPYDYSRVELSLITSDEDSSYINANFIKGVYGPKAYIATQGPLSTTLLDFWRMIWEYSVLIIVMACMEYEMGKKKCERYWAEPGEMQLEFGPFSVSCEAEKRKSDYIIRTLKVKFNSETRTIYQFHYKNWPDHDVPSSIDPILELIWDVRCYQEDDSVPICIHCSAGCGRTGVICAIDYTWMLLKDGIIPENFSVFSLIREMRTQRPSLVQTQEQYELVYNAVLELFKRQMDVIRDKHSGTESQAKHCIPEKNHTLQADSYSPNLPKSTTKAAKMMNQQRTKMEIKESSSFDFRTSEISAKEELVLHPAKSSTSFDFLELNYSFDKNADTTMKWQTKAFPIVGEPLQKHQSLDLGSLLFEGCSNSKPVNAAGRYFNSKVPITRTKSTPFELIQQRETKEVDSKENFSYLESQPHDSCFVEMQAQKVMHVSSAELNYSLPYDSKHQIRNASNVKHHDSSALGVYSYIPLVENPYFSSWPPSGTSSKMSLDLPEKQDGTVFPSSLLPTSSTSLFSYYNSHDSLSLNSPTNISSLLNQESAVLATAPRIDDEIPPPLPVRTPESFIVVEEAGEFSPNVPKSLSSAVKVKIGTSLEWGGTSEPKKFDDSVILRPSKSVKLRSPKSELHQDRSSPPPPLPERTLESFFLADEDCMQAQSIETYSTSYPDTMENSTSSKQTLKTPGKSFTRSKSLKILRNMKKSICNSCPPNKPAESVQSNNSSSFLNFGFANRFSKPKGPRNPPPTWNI

[13] = target: 72 kDa type IV collagenase (Homo sapiens, UniProt P08253); assay: Dose Response validation of uHTS RPN11 inhibitor hits using a MMP-2 Fluorescence assay.; format: functional
72 kDa type IV collagenase, sequence (P08253 whole entry): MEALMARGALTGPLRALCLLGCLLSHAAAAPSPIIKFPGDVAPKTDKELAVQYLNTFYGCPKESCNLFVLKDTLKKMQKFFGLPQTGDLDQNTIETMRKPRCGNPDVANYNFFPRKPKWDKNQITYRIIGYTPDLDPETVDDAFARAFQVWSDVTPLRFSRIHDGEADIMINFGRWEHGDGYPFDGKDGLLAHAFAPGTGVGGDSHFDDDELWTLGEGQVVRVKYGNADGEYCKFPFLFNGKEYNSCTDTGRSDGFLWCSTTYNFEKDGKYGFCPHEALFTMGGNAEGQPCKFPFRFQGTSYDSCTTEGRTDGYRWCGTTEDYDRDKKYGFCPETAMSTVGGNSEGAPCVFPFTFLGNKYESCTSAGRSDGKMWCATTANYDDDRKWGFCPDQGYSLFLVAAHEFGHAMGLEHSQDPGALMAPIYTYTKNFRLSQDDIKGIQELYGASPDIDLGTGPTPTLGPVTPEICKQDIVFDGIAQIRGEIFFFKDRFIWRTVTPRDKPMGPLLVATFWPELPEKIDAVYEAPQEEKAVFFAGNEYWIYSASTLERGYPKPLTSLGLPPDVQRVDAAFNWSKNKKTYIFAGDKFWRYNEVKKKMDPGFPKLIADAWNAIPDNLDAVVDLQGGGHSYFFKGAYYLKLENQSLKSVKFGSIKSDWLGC

[14] = target: T4, Low molecular weight phosphotyrosine protein phosphatase; format: functional; conditions: read-out: IC50_Mean; remark: listed apart in the source
[15] = cytotoxicity toward NIH3T3 fibroblasts, dose response, counter-screen, cell-based, ATP luminescence, mouse fibroblasts (AID 2010); format: functional;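 further: cells exposed to compound for about 90 hours before reading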
[16] = inhibitors of intracellular T. cruzi replication, confirmation, NIH3T3 host cells, beta-gal luminescence (AID 2044); format: functional, cell-based;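 further: intracellular parasites grown in NIH/3T3 mouse fibroblasts as host cells; luminescent beta-galactosidase reporter signal from transgenic T. cruzi replicating inside host cells; inhibitors lower the luminescence signal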
[17] = target: ADP-ribosylation factor GTPase-activating protein 1 (Rattus norvegicus, UniProt Q62848); assay: Fluorescence polarization-based biochemical high throughput dose response screening assay to identify inhibitors of ADP-ribosylation factor GTPase activating protein 1 (ARFGAP1).; format: functional
ADP-ribosylation factor GTPase-activating protein 1, sequence (Q62848 whole entry): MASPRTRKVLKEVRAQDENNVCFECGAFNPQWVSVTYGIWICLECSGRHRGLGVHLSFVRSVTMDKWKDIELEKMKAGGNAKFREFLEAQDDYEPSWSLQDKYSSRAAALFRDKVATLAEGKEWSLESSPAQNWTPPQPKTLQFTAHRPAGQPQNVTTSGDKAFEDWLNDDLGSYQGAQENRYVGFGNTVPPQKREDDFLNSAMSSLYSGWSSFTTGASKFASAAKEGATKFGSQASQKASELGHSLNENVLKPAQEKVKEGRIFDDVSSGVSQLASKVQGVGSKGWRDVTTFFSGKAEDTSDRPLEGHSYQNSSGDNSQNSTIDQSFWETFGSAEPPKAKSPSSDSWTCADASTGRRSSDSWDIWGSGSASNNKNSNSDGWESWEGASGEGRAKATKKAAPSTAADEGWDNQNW

Q: With `NC(Cc1ccc(C(F)(F)F)cc1)c1csc(Nc2nncc3ccccc23)n1` (configuration not stated) as the molecule, how does the AC50 [1] read?
A: The AC50 was 2.52 µM (active).

Q: What about the AC50 [2] of the same molecule?
A: Its AC50 is 8.02 µM (active).

Q: What about the AC50 [3] of the same molecule?
A: Its AC50 is 19.4 µM (active).

Q: For `CC1CCN(C(=O)COC(=O)c2ccc([N+](=O)[O-])o2)CC1`, which AC50 [4] is on record?
A: Its AC50 is 122 µM (active).

Q: And the AC50 [5]?
A: The AC50 was 18.3 µM (active).

Q: For `COc1cncc(-c2cnc3sc(NCCc4ccccn4)nn23)c1`, which IC50 [6] is on record?
A: The IC50 was 9.33 µM (active).

Q: Which IC50 [7] does the source give for `C/C(=N\NC(=O)c1ccc(OC2OCCOC2Oc2ccc(C(=O)N/N=C(\C)c3ccncc3)cc2)cc1)c1ccncc1` (configuration not stated) here?
A: The IC50 was 8.52 µM (active).

Q: What about the IC50 [8] of the same molecule?
A: The IC50 was 9.62 µM (active).

Q: And the IC50 [9]?
A: The IC50 was > 66.6 µM (inactive).

Q: And the IC50 [10]?
A: The IC50 was > 80 µM (inactive).

Q: What about the IC50 [11] of the same molecule?
A: Its IC50 is 41 µM (active).

Q: And the IC50 [12]?
A: Its IC50 is 13.6 µM (active).

Q: What about the IC50 [13] of the same molecule?
A: Its IC50 is > 100 µM (inactive).

Q: And the IC50 [14]?
A: The IC50 was 13.2 µM (active).

Q: Which EC50 [15] does the source give for `N#CCCn1cc(/C=N/NC(N)=S)c(-c2ccc(-c3ccccc3)cc2)n1` here?
A: The EC50 was 9.69 µM (active).

Q: And the EC50 [16]?
A: Its EC50 is 0.924 µM (active).

Q: What about the IC50 [17] of the same molecule?
A: Its IC50 is 128 µM (inactive).
